From US8058475B2, “Substituted cyclohexylmethyl compounds” (Gruenenthal GmbH, priority 2005, dated 2011)
Structures can show the parent of a compound that is named as a salt. Where two headings read alike, the source gives them in different places.

Experiments:
human μ-opiate receptor = human μ-opiate receptor (Homo sapiens, UniProt P35372); assay: Affinity for the human μ-opiate receptor ([3H]-naloxone displacement, SPA, CHO-K1 membrane preparation); format: binding; conditions: for inhibition at 1 µM: read-out: μ-Opioid receptor, % inhibition [1 μM]; for Ki: read-out: μ-Opioid receptor, Ki
[1] = biological target: T1, Noradrenaline (NA) reuptake (Rattus norvegicus, UniProt Q63380); assay: Noradrenaline (NA) reuptake inhibition in rat brain synaptosomes (hypothalamus, P2 fraction); format: biochemical
T1 construct: synaptosomes are freshly isolated from areas of rat brain; from tissue; host or cells: rat hypothalamus synaptosomes (P2 fraction)
Source text: (§1) Noradrenaline (NA) and Serotonin (5HT) Reuptake Inhibition
(§2) In order to be able to carry out these studies in vitro, synaptosomes are freshly isolated from areas of rat brain. A so-called “P2” fraction prepared by the method of Gray and Whittaker (E. G. Gray and V. P. Whittaker (1962) J. Anat. 76, 79-88) is used in each case. For the NA uptake, these vesicular particles are isolated from the hypothalamus of male rat brains.
(§3) A detailed description of the method will be found in the literature (M. Ch. Frink, H. H. Hennies, W. Englberger, M. Haurand and B. Wilffert (1996) Arzneim.-Forsch./Drug Res. 46 (III), 11, 1029-1036).

Serotonin (5HT) reuptake = biological target: T2, Serotonin (5HT) reuptake (Rattus norvegicus, UniProt P31652); assay: Serotonin (5HT) reuptake inhibition in rat brain synaptosomes (P2 fraction); format: biochemical; conditions: for inhibition at 10 µM: read-out: Serotonin reuptake, % inhibition [10 μM]
T2 construct: synaptosomes are freshly isolated from areas of rat brain; from tissue; host or cells: rat brain synaptosomes (P2 fraction)
Source text: as §1, §2, §3

[2] = 1 μM test substance, inhibition of specific [3H]-naloxone binding
[3] = read-out: NA reuptake, % inhibition [10 μM]
[4] = read-out: Na reuptake, % inhibition [10 μM]

T1 sequence (Q63380 1-617): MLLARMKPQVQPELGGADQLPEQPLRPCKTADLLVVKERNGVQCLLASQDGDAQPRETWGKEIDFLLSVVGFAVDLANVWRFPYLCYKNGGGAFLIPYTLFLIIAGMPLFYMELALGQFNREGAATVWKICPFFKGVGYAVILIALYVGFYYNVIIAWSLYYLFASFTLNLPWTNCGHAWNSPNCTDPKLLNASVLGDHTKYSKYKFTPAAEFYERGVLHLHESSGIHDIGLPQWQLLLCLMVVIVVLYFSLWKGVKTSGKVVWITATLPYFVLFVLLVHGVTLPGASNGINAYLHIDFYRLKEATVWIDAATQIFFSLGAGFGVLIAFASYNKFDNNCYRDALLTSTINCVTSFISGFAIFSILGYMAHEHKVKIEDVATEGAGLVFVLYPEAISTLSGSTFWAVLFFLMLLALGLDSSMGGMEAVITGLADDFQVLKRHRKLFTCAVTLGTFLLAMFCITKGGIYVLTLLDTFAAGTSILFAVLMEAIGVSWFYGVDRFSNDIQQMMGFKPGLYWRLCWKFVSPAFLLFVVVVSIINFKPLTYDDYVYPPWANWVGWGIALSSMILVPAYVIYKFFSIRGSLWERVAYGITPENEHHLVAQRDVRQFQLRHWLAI
human μ-opiate receptor, sequence (P35372 whole entry): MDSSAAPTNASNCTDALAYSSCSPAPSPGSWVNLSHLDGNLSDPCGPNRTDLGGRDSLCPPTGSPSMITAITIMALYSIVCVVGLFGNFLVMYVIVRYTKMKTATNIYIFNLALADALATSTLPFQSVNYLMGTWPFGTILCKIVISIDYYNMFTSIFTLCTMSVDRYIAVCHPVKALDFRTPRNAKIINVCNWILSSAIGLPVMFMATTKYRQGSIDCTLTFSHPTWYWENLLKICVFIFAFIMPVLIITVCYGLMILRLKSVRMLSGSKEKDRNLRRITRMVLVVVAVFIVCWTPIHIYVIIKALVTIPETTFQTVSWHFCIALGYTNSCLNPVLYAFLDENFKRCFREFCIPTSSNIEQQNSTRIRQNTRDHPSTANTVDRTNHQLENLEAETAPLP
T2 sequence (P31652 whole entry): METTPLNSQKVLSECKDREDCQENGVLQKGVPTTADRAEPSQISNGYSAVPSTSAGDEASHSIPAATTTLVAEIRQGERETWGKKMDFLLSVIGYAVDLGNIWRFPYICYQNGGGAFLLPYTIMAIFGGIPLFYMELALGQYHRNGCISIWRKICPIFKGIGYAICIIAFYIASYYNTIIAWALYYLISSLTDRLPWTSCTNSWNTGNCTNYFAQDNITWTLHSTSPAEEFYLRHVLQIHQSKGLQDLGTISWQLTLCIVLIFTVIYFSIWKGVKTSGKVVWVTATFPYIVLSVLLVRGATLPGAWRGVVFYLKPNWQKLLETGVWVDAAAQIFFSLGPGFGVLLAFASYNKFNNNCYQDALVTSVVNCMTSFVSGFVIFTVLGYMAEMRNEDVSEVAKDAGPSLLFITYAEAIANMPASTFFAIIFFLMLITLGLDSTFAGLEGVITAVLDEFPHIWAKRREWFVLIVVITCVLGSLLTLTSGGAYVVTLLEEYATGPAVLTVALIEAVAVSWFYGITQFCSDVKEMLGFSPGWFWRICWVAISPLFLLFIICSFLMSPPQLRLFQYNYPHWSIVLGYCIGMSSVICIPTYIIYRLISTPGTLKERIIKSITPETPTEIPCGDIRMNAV

Compound `CN(C)C(c1cccc(F)c1)C1CCC(N)CC1` (stereo not shown) [compound 21, 4-[dimethylamino-(3-fluorophenyl)-methyl]-cyclohexylamine] has an inhibition at 1 µM (human μ-opiate receptor; [2]) of 48%, an inhibition at 10 µM [1, 3] of 90% and an inhibition at 10 µM (Serotonin (5HT) reuptake) of 80%.

`CN(C)C(c1ccccc1)C1CCC(C=O)CC1` (stereo not shown) [compound 28, 4-(Dimethylamino-phenyl-methyl)-cyclohexane-carbaldehyde] showed an inhibition at 1 µM (human μ-opiate receptor; [2]) of 69%, an inhibition at 10 µM [1, 3] of 84% and an inhibition at 10 µM (Serotonin (5HT) reuptake) of 85%.

With `CCOC(=O)C=C1CCC(C(c2ccccc2)N(C)C)CC1` (stereo not shown) [compound 123, [4-(dimethylamino-phenyl-methyl)-cyclohexylidene]-acetic acid ethyl ester] the inhibition at 1 µM (human μ-opiate receptor; [2]) was 75%, the Ki (human μ-opiate receptor) was 190 nM and the inhibition at 10 µM [1, 3] was 66%. It also gave an inhibition at 10 µM (Serotonin (5HT) reuptake) of 92%.

With `CN(C)C(c1ccccc1)C1CCC(OCc2ccc(F)cc2)CC1` (stereo not shown) [compound 145, 4-(4-fluorobenzyloxy)cyclohexyl)-N,N-dimethyl(phenyl)methanamine hydrochloride] the inhibition at 1 µM (human μ-opiate receptor; [2]) was 73%, the Ki (human μ-opiate receptor) was 310 nM and the inhibition at 10 µM [1, 3] was 84%. It also gave a Ki (Serotonin (5HT) reuptake) of 290 nM and an inhibition at 10 µM (Serotonin (5HT) reuptake) of 83%.

Compound `CN(C)C(c1ccccc1)C1CCC(NC(=O)Nc2cccc(C(F)(F)F)c2)CC1` (stereo not shown) [compound 75, 1-(4-((dimethylamino)(phenyl)methyl)cyclohexyl)-3-(3-(trifluoromethyl)-phenyl)urea hydrochloride] has an inhibition at 1 µM (human μ-opiate receptor; [2]) of 88%, a Ki (human μ-opiate receptor) of 98 nM and a Ki [1] of 550 nM. It also gave an inhibition at 10 µM [1, 3] of 88%, a Ki (Serotonin (5HT) reuptake) of 13 nM and an inhibition at 10 µM (Serotonin (5HT) reuptake) of 80%.

`CN(C)C(c1ccccc1)C1CCC(NC(=O)Nc2ccc(F)cc2F)CC1` (stereo not shown) [compound 74, 1-(2,4-difluorophenyl)-3-(4-((dimethylamino)(phenyl)methyl)cyclohexyl)urea hydrochloride] was tested, and the inhibition at 1 µM (human μ-opiate receptor; [2]) was 88%, the Ki (human μ-opiate receptor) was 160 nM and the Ki [1] was 220 nM. It also gave an inhibition at 10 µM [1, 3] of 93%, a Ki (Serotonin (5HT) reuptake) of 120 nM and an inhibition at 10 µM (Serotonin (5HT) reuptake) of 86%.

With `CN(C)C(c1cccc(F)c1)C1CCC(CCCO)CC1` (stereo not shown) [compound 140, 3-{4-[dimethylamino-(3-fluorophenyl)-methyl]-cyclohexyl}-propan-1-ol] the inhibition at 1 µM (human μ-opiate receptor; [2]) was 31%, the inhibition at 10 µM [1, 3] was 94% and the inhibition at 10 µM (Serotonin (5HT) reuptake) was 85%.

Compound `CN(C)C(c1cccc(F)c1)C1CCC(CCN)CC1` (stereo not shown) [compound 54, 2-{4-[dimethylamino-(3-fluorophenyl)-methyl]-cyclohexyl}-ethylamine] has an inhibition at 1 µM (human μ-opiate receptor; [2]) of 62%, an inhibition at 10 µM [1, 3] of 102% and an inhibition at 10 µM (Serotonin (5HT) reuptake) of 94%.

For `CN(C)C(c1cccs1)C1CCC(CO)CC1` (stereo not shown) [compound 121, [4-(dimethylamino-thiophen-2-yl-methyl)-cyclohexyl]-methanol], the inhibition at 1 µM (human μ-opiate receptor; [2]) was 61%, the inhibition at 10 µM [1, 3] was 66% and the inhibition at 10 µM (Serotonin (5HT) reuptake) was 74%.

`CN(C)C(c1ccc(F)cc1)C1CCC(CC=O)CC1` (stereo not shown) [compound 49, {4-[Dimethylamino-(4-fluorophenyl)-methyl]-cyclohexyl}-acetaldehyde] gave an inhibition at 1 µM (human μ-opiate receptor; [2]) of 34%, an inhibition at 10 µM [1, 3] of 97% and an inhibition at 10 µM (Serotonin (5HT) reuptake) of 93%.

`CCOC(=O)CC1CCC(C(c2ccc(F)cc2)N(C)C)CC1` (stereo not shown) [compound 127, {4-[dimethylamino-(4-fluorophenyl)-methyl]-cyclohexyl}-acetic acid ethyl ester] was tested, and the inhibition at 1 µM (human μ-opiate receptor; [2]) was 34%, the inhibition at 10 µM [1, 3] was 89% and the inhibition at 10 µM (Serotonin (5HT) reuptake) was 90%.

In the case of `CC(=O)N(c1ccccc1)C1CCC(C(c2ccccc2)N(C)C)CC1` (stereo not shown) [compound 96, N-(4-((dimethylamino)(phenyl)methyl)cyclohexyl)-N-phenylacetamide hydrochloride], the inhibition at 1 µM (human μ-opiate receptor) is reported as 99%, the Ki (human μ-opiate receptor) is reported as 86 nM and the Ki [1] is reported as 800 nM. For the same compound, the inhibition at 10 µM [1, 4] was 88%, the Ki (Serotonin (5HT) reuptake) was 660 nM and the inhibition at 10 µM (Serotonin (5HT) reuptake) was 83%.

`CN(C)C(c1ccccc1)C1CCC(NS(=O)(=O)c2ccc(C(C)(C)C)cc2)CC1` (stereo not shown) [compound 108, 4-tert-butyl-N-(4-((dimethylamino)(phenyl)methyl)cyclohexyl)benzene-sulfonamide hydrochloride] showed an inhibition at 1 µM (human μ-opiate receptor; 1 μM, sulfonamides (Table 17)) of 92%, a Ki (human μ-opiate receptor; sulfonamides (Table 17)) of 22 nM and an inhibition at 10 µM [1, 3] of 75%. It also gave an inhibition at 10 µM (Serotonin (5HT) reuptake) of 75%.

`CN(C)C(c1ccccc1)C1CCC(NS(=O)(=O)c2ccccc2[N+](=O)[O-])CC1` (stereo not shown) [compound 109, N-(4-((dimethylamino)(phenyl)methyl)cyclohexyl)-2-nitrobenzene-sulfonamide hydrochloride] showed an inhibition at 1 µM (human μ-opiate receptor; 1 μM, sulfonamides (Table 17)) of 92%, a Ki (human μ-opiate receptor; sulfonamides (Table 17)) of 77 nM and an inhibition at 10 µM [1, 3] of 76%. It also gave an inhibition at 10 µM (Serotonin (5HT) reuptake) of 93%.

Compound `CCOC(=O)C=C1CCC(C(c2ccc(F)cc2)N(C)C)CC1` (stereo not shown) [compound 126, {4-[dimethylamino-(4-fluorophenyl)-methyl]-cyclohexylidene}-acetic acid ethyl ester] has an inhibition at 1 µM (human μ-opiate receptor; [2]) of 35%, an inhibition at 10 µM [1, 3] of 81% and an inhibition at 10 µM (Serotonin (5HT) reuptake) of 86%.

In the case of `CN(C)C(c1ccccc1)C1CCC(NCCCc2ccccc2)CC1` (stereo not shown) [compound 85, 4-((dimethylamino)(phenyl)methyl)-N-(3-phenylpropyl)cyclohexanamine dihydrochloride], the inhibition at 1 µM (human μ-opiate receptor; [2]) is reported as 98%, the Ki (human μ-opiate receptor) is reported as 2.8 nM and the inhibition at 10 µM [1, 3] is reported as 103%. The inhibition at 10 µM (Serotonin (5HT) reuptake) was 77%.

For `CN(C)C(c1ccccc1)C1CCC(Nc2ccccc2)CC1` (stereo not shown) [compound 92, N-(4-((dimethylamino)(phenyl)methyl)cyclohexyl)benzenamine hydrochloride], the inhibition at 1 µM (human μ-opiate receptor; [2]) was 91%, the Ki (human μ-opiate receptor) was 17 nM and the inhibition at 10 µM [1, 3] was 75%. The inhibition at 10 µM (Serotonin (5HT) reuptake) was 69%.

For `CN(C)C(c1ccccc1)C1CCC(OCc2ccccc2)CC1` (stereo not shown) [compound 144, 4-(benzyloxy)cyclohexyl)-N,N-dimethyl(phenyl)methanamine hydrochloride], the inhibition at 1 µM (human μ-opiate receptor; [2]) was 81%, the Ki (human μ-opiate receptor) was 120 nM and the inhibition at 10 µM [1, 3] was 75%. For the same compound, the inhibition at 10 µM (Serotonin (5HT) reuptake) was 80%.

`CCC(=O)N(CCCCc1ccccc1)C1CCC(C(c2ccccc2)N(C)C)CC1` (stereo not shown) [compound 97, N-(4-((dimethylamino)(phenyl)methyl)cyclohexyl)-N-(4-phenylbutyl)propionamide hydrochloride] was tested, and the inhibition at 1 µM (human μ-opiate receptor) was 97%, the Ki (human μ-opiate receptor) was 3.7 nM and the Ki [1] was 700 nM. The inhibition at 10 µM [1, 4] was 94%, the Ki (Serotonin (5HT) reuptake) was 990 nM and the inhibition at 10 µM (Serotonin (5HT) reuptake) was 76%.

In the case of `COc1ccc(S(=O)(=O)NC2CCC(C(c3ccccc3)N(C)C)CC2)cc1` (stereo not shown) [compound 107, N-(4-((dimethylamino)(phenyl)methyl)cyclohexyl)-4-methoxybenzene-sulfonamide hydrochloride], the inhibition at 1 µM (human μ-opiate receptor; 1 μM, sulfonamides (Table 17)) is reported as 99%, the Ki (human μ-opiate receptor; sulfonamides (Table 17)) is reported as 15 nM and the inhibition at 10 µM [1, 3] is reported as 78%. The inhibition at 10 µM (Serotonin (5HT) reuptake) was 90%.

`CN(C)C(c1cccs1)C1CCC(CN)CC1` (stereo not shown) [compound 42, [(4-aminomethyl-cyclohexyl)-thiophen-2-yl-methyl]-dimethylamine] was tested, and the inhibition at 1 µM (human μ-opiate receptor; [2]) was 80%, the Ki (human μ-opiate receptor; [3H]-naloxone, human μ-opiate receptor membranes) was 240 nM and the inhibition at 10 µM [1, 3] was 83%. It also gave an inhibition at 10 µM (Serotonin (5HT) reuptake) of 86%.

In the case of `CN(C)C(c1ccccc1)C1CCC(CCN)CC1` (stereo not shown) [compound 48], the “μ-Opioid receptor, % inhibition [1 μM]” value (human μ-opiate receptor; [2]) is reported as 67%, the “NA reuptake, % inhibition [10 μM]” value ([1]; 10 μM, rat brain synaptosomes (hypothalamus)) is reported as 100% and the “Serotonin reuptake, % inhibition [10 μM]” value (Serotonin (5HT) reuptake; 10 μM, rat brain synaptosomes) is reported as 95%.

`COc1ccc(N(C(C)=O)C2CCC(C(c3ccccc3)N(C)C)CC2)cc1` (stereo not shown) [compound 99, N-(4-((dimethylamino)(phenyl)methyl)cyclohexyl)-N-(4-methoxyphenyl)-acetamide hydrochloride] was tested, and the inhibition at 1 µM (human μ-opiate receptor) was 77%, the Ki (human μ-opiate receptor) was 470 nM and the inhibition at 10 µM [1, 4] was 75%. For the same compound, the Ki (Serotonin (5HT) reuptake) was 540 nM and the inhibition at 10 µM (Serotonin (5HT) reuptake) was 83%.

With `CN(C)C(c1cccc(F)c1)C1CCC(CO)CC1` (stereo not shown) [compound 119, {4-[dimethylamino-(3-fluorophenyl)-methyl]-cyclohexyl}-methanol] the inhibition at 1 µM (human μ-opiate receptor; [2]) was 43%, the inhibition at 10 µM [1, 3] was 91% and the inhibition at 10 µM (Serotonin (5HT) reuptake) was 88%.

With `CN(C)C(c1ccccc1)C1CCC(CO)CC1` (stereo not shown) [compound 117, [4-(dimethylamino-phenyl-methyl)-cyclohexyl]-methanol] the inhibition at 1 µM (human μ-opiate receptor; [2]) was 57%, the inhibition at 10 µM [1, 3] was 82% and the inhibition at 10 µM (Serotonin (5HT) reuptake) was 85%.

In the case of `CN(C)C(c1ccc(F)cc1)C1CCC(CCO)CC1` (stereo not shown) [compound 128, 2-{4-[dimethylamino-(4-fluorophenyl)-methyl]-cyclohexyl}-ethanol], the inhibition at 1 µM (human μ-opiate receptor; [2]) is reported as 18%, the inhibition at 10 µM [1, 3] is reported as 88% and the inhibition at 10 µM (Serotonin (5HT) reuptake) is reported as 84%.

`CN(C)C(c1ccccc1)C1CCC(NCCc2c[nH]c3ccccc23)CC1` (stereo not shown) [compound 83, N-(2-(1H-indol-3-yl)ethyl)-4-((dimethylamino)(phenyl)methyl)-cyclohexanamine hydrochloride] gave an inhibition at 1 µM (human μ-opiate receptor; [2]) of 95%, a Ki (human μ-opiate receptor) of 7 nM and an inhibition at 10 µM [1, 3] of 100%. The inhibition at 10 µM (Serotonin (5HT) reuptake) was 93%.

Compound `CCOC(=O)CCC1CCC(C(c2cccc(F)c2)N(C)C)CC1` (stereo not shown) [compound 139, 3-{4-[dimethylamino-(3-fluorophenyl)-methyl]-cyclohexyl}-propionic acid ethyl ester] has an inhibition at 1 µM (human μ-opiate receptor; [2]) of 90%, a Ki (human μ-opiate receptor) of 44 nM and a Ki [1] of 790 nM. For the same compound, the inhibition at 10 µM [1, 3] was 94%, the Ki (Serotonin (5HT) reuptake) was 58 nM and the inhibition at 10 µM (Serotonin (5HT) reuptake) was 89%.

Compound `CN(C)C(CCc1ccccc1)C1CCC(O)CC1` (stereo not shown) [compound 116, 4-(1-dimethylamino-3-phenyl-propyl)-cyclohexanol] has an inhibition at 1 µM (human μ-opiate receptor; [2]) of 37%, an inhibition at 10 µM [1, 3] of 95% and an inhibition at 10 µM (Serotonin (5HT) reuptake) of 74%.
